{
  "source": "the Deep4Chem optical property database",
  "test": "photoluminescence quantum yield (fraction); solvent given as SMILES",
  "data": [
    {"smiles": "CC(C)c1cc(C(C)C)c(B2c3ccccc3Oc3cc(N4c5ccccc5C5(c6ccccc6-c6ccccc65)c5ccccc54)ccc32)c(C(C)C)c1", "values": [
      {"measurement": "photoluminescence quantum yield", "setting": "in Cc1ccccc1", "result": 0.76}
    ]},
    {"smiles": "N#Cc1ccc(C#Cc2ccc(C#Cc3ccccc3C#N)cc2C#N)cc1", "values": [
      {"measurement": "photoluminescence quantum yield", "setting": "in ClC(Cl)Cl", "result": 0.783}
    ]},
    {"smiles": "Cc1ccc(C2=C(c3ccc(C)cc3)c3cccc4c3c(cc3nc5ccccc5nc34)O2)cc1", "values": [
      {"measurement": "photoluminescence quantum yield", "setting": "in ClCCl", "result": 0.43}
    ]},
    {"smiles": "O=c1c2cc(F)c(O)cc2oc2cc(O)c(F)cc12", "values": [
      {"measurement": "photoluminescence quantum yield", "setting": "in CCO", "result": 0.26}
    ]},
    {"smiles": "CC(=O)N(Cc1ccccn1)c1c2ccccc2c2c3c(cccc13)C(=O)N(Cc1ccccn1)C2=O", "values": [
      {"measurement": "photoluminescence quantum yield", "setting": "in C1CCOC1", "result": 0.36},
      {"measurement": "photoluminescence quantum yield", "setting": "in CCCCCC", "result": 0.59},
      {"measurement": "photoluminescence quantum yield", "setting": "in CCO", "result": 0.35},
      {"measurement": "photoluminescence quantum yield", "setting": "in Cc1ccccc1", "result": 0.52},
      {"measurement": "photoluminescence quantum yield", "setting": "in ClCCl", "result": 0.48}
    ]},
    {"smiles": "COCCOCCOCCNc1cc2c3c(c(NCCOCCOCCOC)cc4c3c1C(=O)N(CCOCCOCCOC)C4=O)C(=O)N(CCOCCOCCOC)C2=O", "values": [
      {"measurement": "photoluminescence quantum yield", "setting": "in CO", "result": 0.33},
      {"measurement": "photoluminescence quantum yield", "setting": "in ClC(Cl)Cl", "result": 0.56},
      {"measurement": "photoluminescence quantum yield", "setting": "in O", "result": 0.039}
    ]},
    {"smiles": "CCC(C)(C)c1ccc(-c2ccc3c(c2)C(CCOC)(CCOC)c2cc4c(cc2-3)C(CCOC)(CCOC)c2cc(-c3ccc(C(C)(C)CC)cc3)ccc2-4)cc1", "values": [
      {"measurement": "photoluminescence quantum yield", "setting": "in C1CCCCC1", "result": 0.86}
    ]},
    {"smiles": "CN(C)c1ccc(/C=C/c2ccc(-c3nc(C#N)c(C#N)n3C)cc2)cc1", "values": [
      {"measurement": "photoluminescence quantum yield", "setting": "in C1CCCCC1", "result": 0.17},
      {"measurement": "photoluminescence quantum yield", "setting": "in CC#N", "result": 0.002},
      {"measurement": "photoluminescence quantum yield", "setting": "in CO", "result": 0.002},
      {"measurement": "photoluminescence quantum yield", "setting": "in ClC(Cl)Cl", "result": 0.16}
    ]},
    {"smiles": "CC(=O)c1ccc(-c2cc(C)[o+]c(C)c2)cc1", "values": [
      {"measurement": "photoluminescence quantum yield", "setting": "in ClCCl", "result": 0.03}
    ]},
    {"smiles": "Cc1ccc2c(c1)C1(c3ccccc3-c3ccccc31)c1cc(C)ccc1N2c1ccc(-c2nc(-c3ccccc3)cc(-c3ccccc3)n2)cc1", "values": [
      {"measurement": "photoluminescence quantum yield", "setting": "in O=P(c1ccccc1)(c1ccccc1)c1ccc2oc3ccc(P(=O)(c4ccccc4)c4ccccc4)cc3c2c1", "result": 0.87}
    ]},
    {"smiles": "c1ccc(-c2nc(-c3ccccc3)nc(-c3ccc(-n4c5ccccc5c5cc(-n6c7ccccc7c7ccccc76)ccc54)cc3)n2)cc1", "values": [
      {"measurement": "photoluminescence quantum yield", "setting": "in Cc1ccccc1", "result": 0.72}
    ]},
    {"smiles": "Cc1cc(C)c2cc3cc(C)ncc3cc2c1", "values": [
      {"measurement": "photoluminescence quantum yield", "setting": "in CCO", "result": 0.44}
    ]},
    {"smiles": "CCCCCCCCN1c2ccc(C#Cc3ccc(F)cc3)cc2Sc2cc(C=O)ccc21", "values": [
      {"measurement": "photoluminescence quantum yield", "setting": "in C1CCOC1", "result": 0.64},
      {"measurement": "photoluminescence quantum yield", "setting": "in CC#N", "result": 0.24},
      {"measurement": "photoluminescence quantum yield", "setting": "in CCCCCC", "result": 0.48},
      {"measurement": "photoluminescence quantum yield", "setting": "in CO", "result": 0.07},
      {"measurement": "photoluminescence quantum yield", "setting": "in CS(C)=O", "result": 0.75},
      {"measurement": "photoluminescence quantum yield", "setting": "in Cc1ccccc1", "result": 0.52},
      {"measurement": "photoluminescence quantum yield", "setting": "in ClC(Cl)Cl", "result": 0.4}
    ]},
    {"smiles": "Cc1cc(N(C)C)ccc1C1=C2C=CC(=[N+](C)C)C=C2[Si](C)(C)c2cc(N(C)C)ccc21", "values": [
      {"measurement": "photoluminescence quantum yield", "setting": "in O", "result": 0.001}
    ]},
    {"smiles": "CC(C)(C)NC(=O)c1cc2ccc3cccc4ccc(c1C(=O)NC(C)(C)C)c2c34", "values": [
      {"measurement": "photoluminescence quantum yield", "setting": "in ClC(Cl)Cl", "result": 0.39}
    ]},
    {"smiles": "Nc1cccc2ccccc12", "values": [
      {"measurement": "photoluminescence quantum yield", "setting": "in C1CCCCC1", "result": 0.6}
    ]},
    {"smiles": "O=S(=O)(c1cccc(N2c3ccccc3Sc3ccccc32)c1)c1cccc(N2c3ccccc3Sc3ccccc32)c1", "values": [
      {"measurement": "photoluminescence quantum yield", "setting": "in CCCCC(CC)n1c2ccc(-n3c4ccccc4c4ccccc43)cc2c2cc(-n3c4ccccc4c4ccccc43)ccc21", "result": 0.082},
      {"measurement": "photoluminescence quantum yield", "setting": "in c1cc(-n2c3ccccc3c3ccccc32)cc(-n2c3ccccc3c3ccccc32)c1", "result": 0.116}
    ]},
    {"smiles": "CC(C)[Si](C#Cc1c2ccccc2c(C#Cc2c3ccccc3c(C#Cc3c4ccccc4c(C#Cc4c5ccccc5c(C#Cc5c6ccccc6c(C#C[Si](C(C)C)(C(C)C)C(C)C)c6ccccc56)c5ccccc45)c4ccccc34)c3ccccc23)c2ccccc12)(C(C)C)C(C)C", "values": [
      {"measurement": "photoluminescence quantum yield", "setting": "in Cc1ccccc1", "result": 0.018}
    ]},
    {"smiles": "COc1ccc(-c2c3cc4ccccc4cc3c(C#Cc3ccccc3)c3cc4cc(C)sc4cc23)cc1", "values": [
      {"measurement": "photoluminescence quantum yield", "setting": "in ClCCl", "result": 0.45}
    ]},
    {"smiles": "CCC1=C(C)C2=C(c3c4ccccc4cc4ccccc34)c3c(C)c(CC)c(C)n3[B-](F)(F)[N+]2=C1C", "values": [
      {"measurement": "photoluminescence quantum yield", "setting": "in CC#N", "result": 0.579},
      {"measurement": "photoluminescence quantum yield", "setting": "in CCCCCC", "result": 0.871},
      {"measurement": "photoluminescence quantum yield", "setting": "in CCO", "result": 0.778},
      {"measurement": "photoluminescence quantum yield", "setting": "in CN(C)C=O", "result": 0.705},
      {"measurement": "photoluminescence quantum yield", "setting": "in Cc1ccccc1", "result": 0.806},
      {"measurement": "photoluminescence quantum yield", "setting": "in ClCCl", "result": 0.799}
    ]},
    {"smiles": "Cc1ccc(C)c(C2=C3C=CC(=[N+](C)C)C=C3[Si](C)(C)c3cc(N(C)C)ccc32)c1", "values": [
      {"measurement": "photoluminescence quantum yield", "setting": "in O", "result": 0.32}
    ]},
    {"smiles": "CC1=[N+]2C(=C(c3ccccc3)c3c4c(c(C)n3[B-]2(F)F)C2CCC4CC2)C2=C1C1CCC2CC1", "values": [
      {"measurement": "photoluminescence quantum yield", "setting": "in CC#N", "result": 0.81}
    ]},
    {"smiles": "CCCCCCCCCCCCOc1cc2c3c(ccc4c5c(OCCCCCCCCCCCC)cc6c7c(ccc(c1c34)c75)C(=O)N(C1CCCCC1)C6=O)C(=O)N(C1CCCCC1)C2=O", "values": [
      {"measurement": "photoluminescence quantum yield", "setting": "in ClC(Cl)Cl", "result": 0.724}
    ]},
    {"smiles": "CCn1c2ccccc2sc2c(C#N)c3oc4ccccc4oc3c(C#N)c21", "values": [
      {"measurement": "photoluminescence quantum yield", "setting": "in ClC(Cl)Cl", "result": 0.23}
    ]},
    {"smiles": "O=c1c2cccc3cccc(c32)c2nc3c(F)c(F)c(F)c(F)c3n12", "values": [
      {"measurement": "photoluminescence quantum yield", "setting": "in ClCCl", "result": 0.82}
    ]},
    {"smiles": "Cc1ccc(-n2c(-c3ccc(N(c4ccc(-c5ccc(N(c6ccc(-c7nc8c9ccccc9c9ccccc9c8n7-c7ccc(C)cc7)cc6)c6ccc(-c7nc8c9ccccc9c9ccccc9c8n7-c7ccc(C)cc7)cc6)cc5)cc4)c4ccc(-c5nc6c7ccccc7c7ccccc7c6n5-c5ccc(C)cc5)cc4)cc3)nc3c4ccccc4c4ccccc4c32)cc1", "values": [
      {"measurement": "photoluminescence quantum yield", "setting": "in ClCCl", "result": 0.282}
    ]},
    {"smiles": "CCCc1ccc2c(c1)cc1n2B2c3c4c-1cccc4cc1cccc(c31)-c1cc3cc(CCC)ccc3n12", "values": [
      {"measurement": "photoluminescence quantum yield", "setting": "in C1CCOC1", "result": 0.39}
    ]},
    {"smiles": "COCc1ncc(-c2c3ccccc3c(-c3cnc(COC)nc3)c3ccccc23)cn1", "values": [
      {"measurement": "photoluminescence quantum yield", "setting": "in CCO", "result": 0.89},
      {"measurement": "photoluminescence quantum yield", "setting": "in ClCCl", "result": 0.83}
    ]},
    {"smiles": "CCCCCc1ccc(C#Cc2cc(C#Cc3ccc(CCCCC)cc3)c3ccc4c(C(=O)c5ccccc5)cc(C#Cc5ccc(CCCCC)cc5)c5ccc2c3c54)cc1", "values": [
      {"measurement": "photoluminescence quantum yield", "setting": "in ClCCl", "result": 0.43}
    ]},
    {"smiles": "Cc1nc2c(cc3c4c(cccc42)C(=O)OC3=O)o1", "values": [
      {"measurement": "photoluminescence quantum yield", "setting": "in CCO", "result": 0.073}
    ]},
    {"smiles": "N#Cc1cc(-n2c3ccccc3c3ccccc32)c(C#N)cc1-n1c2ccccc2c2ccccc21", "values": [
      {"measurement": "photoluminescence quantum yield", "setting": "in c1cc(-c2cccc(-n3c4ccccc4c4ccccc43)c2)cc(-n2c3ccccc3c3ccccc32)c1", "result": 0.87},
      {"measurement": "photoluminescence quantum yield", "setting": "in c1ccc2c(c1)c1ccccc1n2P1(n2c3ccccc3c3ccccc32)=NP(n2c3ccccc3c3ccccc32)(n2c3ccccc3c3ccccc32)=NP(n2c3ccccc3c3ccccc32)(n2c3ccccc3c3ccccc32)=N1", "result": 0.85}
    ]},
    {"smiles": "O=C1CCCC2=C1CC1=C(CCCC1=O)N2NC(=O)c1ccccc1", "values": [
      {"measurement": "photoluminescence quantum yield", "setting": "in C1CCOC1", "result": 0.33},
      {"measurement": "photoluminescence quantum yield", "setting": "in CC#N", "result": 0.46},
      {"measurement": "photoluminescence quantum yield", "setting": "in CC(C)=O", "result": 0.42},
      {"measurement": "photoluminescence quantum yield", "setting": "in CCCCCO", "result": 0.42},
      {"measurement": "photoluminescence quantum yield", "setting": "in CO", "result": 0.34},
      {"measurement": "photoluminescence quantum yield", "setting": "in ClC(Cl)Cl", "result": 0.62},
      {"measurement": "photoluminescence quantum yield", "setting": "in ClCCl", "result": 0.31}
    ]},
    {"smiles": "FC(F)(F)C(F)(F)C(F)(F)C(F)(F)C(F)(F)C(F)(F)CCOc1nnc(Cl)nn1", "values": [
      {"measurement": "photoluminescence quantum yield", "setting": "in ClCCl", "result": 0.4},
      {"measurement": "photoluminescence quantum yield", "setting": "in OCC(F)(F)F", "result": 0.26}
    ]},
    {"smiles": "CCN(CC)c1ccc2cc(-c3nc4cc(C(=O)Nc5ccccc5)ccc4o3)c(=O)oc2c1", "values": [
      {"measurement": "photoluminescence quantum yield", "setting": "in ClCCl", "result": 0.35}
    ]},
    {"smiles": "CCN(CC)c1ccc2c(c1)oc(=O)c1c(=O)oc3cc(C#Cc4ccc(N(C)C)cc4)ccc3c12", "values": [
      {"measurement": "photoluminescence quantum yield", "setting": "in ClCCl", "result": 0.04}
    ]}
  ]
}
